Experimental data taken from patent publication US20250009886A1, “COMPOSITIONS FOR SMALL MOLECULE THERAPEUTIC AGENT COMPOUNDS” (Delpor, Inc., priority 2016, published 2025).
≈ marks a conversion by molar mass, not a printed value.

Columns and labels:
[1] = cited from earlier work; for Solubility: of the organic acid
[2] = In vitro release of risperidone from devices loaded with various risperidone addition salts (Example 5); type: physicochemical; settings: for Percent Risperidone Released at Day 15: cumulative percent of total risperidone released from device, two-fold molar excess of acid, PBS, 37° C., 15 days; for cumulative in vitro release of risperidone after 15 days (percent of total loaded drug): device in 100 mL PBS at 37° C., risperidone salt with two-fold molar excess of acid

Percent Risperidone Released at Day 15 [2] [%]	cumulative in vitro release of risperidone after 15 days (percent of total loaded drug) [2] [%]	SMILES	Solubility [1] [mg/mL]	insolubility in water ([1]; neutral free base, 20-25° C.)
55	–	O=C(O)CCCCCCCCC(=O)O [Sebacic acid, sebacic acid]	–	–
2.6	2.6	O=C(O)c1ccc(C(=O)O)cc1 [Terephthalic acid]	–	–
16	16	O=c1[nH]c(=O)c2[nH]c(=O)[nH]c2[nH]1 [Uric acid]	–	–
55	–	COc1cc(C(=O)O)ccc1O [Vinallic acid, vanillic acid]	–	–

Continued, compound first:

SMILES	Percent Risperidone Released at Day 15 [2] [%]	cumulative in vitro release of risperidone after 15 days (percent of total loaded drug) [2] [%]	Solubility [1] [mg/mL]	insolubility in water ([1]; neutral free base, 20-25° C.)
O=C(O)C(O)c1ccccc1 (racemic) [rac-Mandelic]	–	–	158.7 (≈ 1040 mM)	–
O=C(O)CNC(=O)c1ccccc1 [Hippuric acid]	94	94	–	–
O=C(O)CCc1ccc(O)cc1 [Hydroxyphenylpropionic acid, 3-(4-hydroxyphenyl) propionic acid]	92	92	–	–
Nc1ccc(C(=O)O)cc1 [PABA, 4-aminobenzoic acid]	45	–	–	–
Cc1nc2n(c(=O)c1CCN1CCC(c3noc4cc(F)ccc34)CC1)CCCC2 [Risperidone, risperidone, reference compound]	–	–	–	> 10000 volumes of water per volume of drug
O=C(O)/C=C/c1ccc(O)cc1 [p-Coumaric, p-coumaric acid]	–	–	1 to 10	–
